Experiment [1] has as its system adult female common mosquitoes. Description: Knockdown of common mosquitoes by oily formulation sprayed into 70 cm cubic chamber (Test Example 3). It counts as in vivo, common mosquito (Culex pipiens pallens). The note with it: 0.00625% oily formulation, 0.7 ml sprayed into 70 cm cubic chamber; 10 adult female common mosquitoes; counted over 10 minutes. The source says:
Three (3) 0.00625% oily formulations were produced with the following pesticidal compounds: […]
In the compound encompassed by formula (A), the weight ratio of trans isomers thereof to the cis isomers thereof is 8:2. The 0.00625% oily formulations were produced by dissolving, respectively, 0.00625 parts of the above pesticidal compounds in 10 parts of dichloromethane and by mixing each of the resulting mixture with 89.99375 parts of deodorized kerosene.
Ten (10) adult female common mosquitoes were released in each of the cubic chambers having a side length of 70 cm. Seven-tenths milliliters (0.7 ml) of the 0.00625% oily formulations were then sprayed, respectively, into each of the chambers from the side windows of the chambers, utilizing spray guns set to a pressure of 8.8×10^4 Pa. The numbers of knockdowned common mosquitoes were counted periodically over 10 minutes. The times utilized to knockdown half of the tested common mosquitoes (KT50) were determined from the number of knockdowned common mosquitoes.

Experiment [2] has as its system Adult houseflies. Description: Knockdown rate of houseflies in plastic cup after direct spray of oily formulation (Test Example 2). In kind it is in vivo, housefly (Musca domestica). The following applies: 0.1% oily formulation (table), 0.5 ml sprayed from about 30 cm above cup; 10 adult houseflies; counted 10 seconds thereafter. The method, then:
A 0.1% oily formulation was produced by dissolving 0.1 part of the present invention compound 1 in 10 parts of dichloromethane and by mixing the resulting mixture with 89.9 parts of deodorized kerosene.
Ten (10) adult houseflies (5 of each male and female) were placed in a 650 ml plastic cup. The opening of the plastic cup was covered with a nylon mesh to confine the houseflies to the plastic cup. The plastic cup was placed on top of a metal screen placed in a metal chamber having the dimensions 46 cm×46 cm×70 cm. Five-tenths milliliters (0.5 ml) of the […] oily formulation was then sprayed from about 30 cm above the top area of the plastic cup, utilizing a spray gun set to a pressure of 8.8×10^4 Pa. The number of knockdowned houseflies were counted 10 seconds thereafter. The knockdown rate was determined from the number of knockdowned houseflies achieved. The knockdown rate was 95%.

The test system of experiment [3] is Adult houseflies. Description: Knockdown of houseflies by oily formulation sprayed into 70 cm cubic chamber (Test Example 1). The following applies: 0.025% oily formulation, 0.7 ml sprayed into 70 cm cubic chamber; 5 male and 5 female adult houseflies; counted over 10 minutes. It counts as in vivo, housefly (Musca domestica). The method, then:
A 0.025% oily formulation was produced by dissolving 0.025 parts of the present invention compound 1 in 10 parts of dichloromethane and by mixing the resulting mixture with 89.975 parts of deodorized kerosene.
Adult houseflies (5 of each male and female) were released in a cubic chamber having a side length of 70 cm. Seven-tenths milliliters (0.7 ml) of the 0.025% oily formulation was then sprayed into the chamber from a side window of the chamber, utilizing a spray gun set to a pressure of 8.8×10^4 Pa. The number of knockdowned houseflies was counted periodically over 10 minutes. The time utilized to knockdown half of the tested houseflies (KT50) was determined from the number of knockdowned houseflies. The KT50 was 2.3 minutes.

Structures are written as SMILES.

Regarding `C#CCN1CC(=O)N(COC(=O)C2C(C=C(C)C)C2(C)C)C1=O` (single isomer, unassigned) [Compound c, reference compound], the “KT50 (time utilized to knockdown half of the tested common mosquitoes)” value in experiment [1] is 2.9 min.

Consider `C#CCN1CC(=O)N(COC(=O)[C@@H]2[C@@H](/C=C\C)C2(C)C)C1=O` [Present invention compound 1, 2,5-dioxo-3-(2-propynyl)imidazolidin-1-ylmethyl (1R)-trans-2,2-dimethyl-3-((Z)1-propenyl)cyclopropanecarboxylate], for which, in experiment [2], the Knockdown rate is on record as 95%. Besides, the “KT50 (time utilized to knockdown half of the tested houseflies)” value in experiment [3] turned out to be 2.3 min. Further, the “KT50 (time utilized to knockdown half of the tested common mosquitoes)” value in experiment [1] was determined as 0.99 min.

For `C#CCN1CC(=O)N(COC(=O)[C@@H]2[C@H](/C=C\C)C2(C)C)C1=O` [Present invention compound 3, 2,5-dioxo-3-(2-propynyl)imidazolidin-1-ylmethyl (1R)-cis-2,2-dimethyl-3-((Z)1-propenyl)cyclopropanecarboxylate], the “KT50 (time utilized to knockdown half of the tested common mosquitoes)” value in experiment [1] came out at 1.4 min.
